Experimental findings from patent US11433136B2, “Polyacetal polymers, conjugates, particles and uses thereof” (THE GENERAL HOSPITAL CORPORATION, priority 2015, dated 2022) are described below.

This data set has as its system PAN02 tumors. The data set can be described thus: Orthotopic PAN02 pancreatic (PDAC) tumors in lean and obese mice. It counts as in vivo, mice (C57BL/6). As to the method: Diet started at six weeks of age, continued for ten weeks (C57BL/6 and FVB), at which time tumors were implanted, and then continued until the end of experiments. In the spontaneous tumor models, diets were administered until tumor collection. Mice genetically deficient for leptin (ob/ob) on a standard chow for seven weeks gained weight compared to age matched WT mice (n=8-10/group for C57Bl/6, FVB and ob/ob, 4-10/group for KPC, 7-21/group for iKRAS). Left bars represent mice fed a low-fat diet, right bars represent mice fed a high fat diet for all groups except C57/B6 on the far right of the graph, in which the right bar represents the ob/ob mice. […] PAN02 and AK4.4 syngeneic tumors were orthotopically implanted in C57BL/6 and FVB mice respectively at ten weeks of diet (lean diet, left bars; and obese diet or ob/ob mice, right bars); ob/ob mice were implanted with PAN02 tumors at seven weeks of age. Tumors were collected 21 days later. Obese animals presented with higher tumor weights than lean counterparts in all models (n=8-10/group). FIG. 7D is representative images of mesenteric peritoneal dissemination in lean and obese mice implanted with PAN02 tumors. Mesenteries collected at the same time as tumors in FIG. 7C. FIG. 7E is a graph showing the quantification of mesenteric peritoneal metastasis in the PAN02 model. FIG. 7F is a graph showing the quantification of retro-peritoneal metastasis in the AK4.4 model. Data are shown as mean±standard error of the mean (SEM). P values were determined by the Student t-test. *, P<0.05; **, P<0.01; ***, P<0.001.
FIG. 9A is representative pictures of CD31(+) vessels and lectin in PAN02 tumors. Scale bars: 200 μm. FIG. 9B is a graph showing the quantification of the total (CD31+) and lectin-positive (CD31/lectin+) vessel area in PAN02 tumors. Obese mice (right bars) presented with decreased perfusion (n=3-6 tumors/group) compared to lean mice (left bars). […] Obese mice presented with increased hypoxia in tumors. […] 5-FU quantified via high performance liquid chromatography (HPLC). […] PAN02 tumors were orthotopically implanted at ten weeks of diet, treatments were initiated at day seven post-implantation and tumors resected at day 19. […] Data are shown as mean±SEM. P values were determined by the Student t-test unless otherwise stated. *, P<0.05; **, P<0.01
Expression of genes associated with AT-1 pathway activation and fibrosis/desmoplasia is increased in PAN02 (FIG. 10A) and AK4.4 (FIG. 10B) tumors from obese mice (right bars) in comparison to lean mice (left bars). […] Data normalized to lean group. 3-4 samples per group pooled in one single PCR array fibrosis gene set plate. […] Of note, similar to αSMA, the changes of AT1, as well as other desmoplasia related markers, were relatively mild in the lean setting. […] Data are shown as mean±SEM with the exception of FIGS. 10A and 10B. P values were determined by the Student t-test unless otherwise stated. *, P<0.05; **, P<0.01, ***p<0.001.
Obesity promoted infiltration of myeloid Gr-1(+)F4/80(−) cell population in PAN02 tumors in obese mice. FIG. 11B is a quantification normalized by total viable cells (i) or total CD45 leucocytes (ii) (n=4-6 tumors/group). FIG. 11C is representative FACS scatter plots of CD45(+)CD11b(+)Ly6G(+) tumor associated neutrophils (TANs), CD8(+) cytotoxic lymphocytes and CD4(+)CD25(+) regulatory T cells in PAN02 tumors in lean and obese setting. […] Obese promoted an increase in TANs and a decrease in CD8 cells in PAN02 tumors. A strong tendency for increased Tregs was also observed. […] Scale bars: 1 mm (whole tumors) and 100 μm (caption). […] (n=4-6 tumors/group). For bar graphs in FIGS. 11A, 11B, 11D, and 11E, left bars represent lean mice, and right bars represent obese mice. For the bar graph in FIG. 11J, left bars represent obese mice, and right bars represent obese mice with TAN depletion. Data are shown as mean±SEM. […]

Molecules are shown by their SMILES.

With `O=c1[nH]cc(F)c(=O)[nH]1` [Example 5-FU, 5-fluorouracil], the “delivery of chemotherapy to tumors, 5-FU quantified via HPLC” value (obese vs lean mice) is “decreased delivery”. Further, where the note is “obese vs lean, treatment from day 7, tumors resected day 19”, the “response to chemotherapy (tumor growth)” value is reported as “less effective in preventing PAN02 tumor growth in obese animals than in lean”.
Regarding `CCCCc1nc(Cl)c(CO)n1Cc1ccc(-c2ccccc2-c2nn[nH]n2)cc1` [losartan], the “response to chemotherapy with AT1 blockade” value (losartan with 5-FU, lean and obese) is listed as “improved response to chemotherapy in obese, but not in lean animals”. Moreover, where the note is “obese and lean”, the “tumor αSMA protein expression” value is “tendency for reduced tumor αSMA protein expression in obese but not lean setting”. For the setting “obese but not lean mice”, the “chemotherapy delivery to tumors” value is recorded as “increase chemotherapy delivery” and the tumor perfusion entry is “tended to improve perfusion”. Moreover, the “cytokine expression in tumors (multiplex protein)” value (obese mice) is reported as “reduced the expression of multiple cytokines including IL-1”.
